pIC50: −log10 of the molar value. Read-outs that look alike come from different tables or passages of the source.
What was measured:
C-Raf kinase = target: T1, C-Raf kinase (Homo sapiens, UniProt P04049, Y340D/Y341D); test: Biochemical Assay for C-Raf (coupled pyruvate kinase/lactate dehydrogenase assay)
T1 construct: C-Raf residues 306-end; Y340D, Y341D with N-; GST (N); purchased Eurofins

HPAF-II cells = test: HPAF-II Cell Proliferation Assay; format: cell-based; conditions: Homo sapiens
Description: HPAF-II cells (catalog #CRL-1997) are obtained from the American Type Culture Collect (ATCC, Manassas, VA). Briefly, cells are grown in Minimum Essential Media supplemented with 10% characterized fetal bovine serum (Invitrogen, Carlsbad, CA) and 1% Penicillin/Streptomycin/L-Glutamine at 37° C., 5% CO2, and 95% humidity. Cells are expanded until reaching 70-95% confluency at which point they are sub-cultured or harvested for assay use. A serial dilution of test compound is dispensed into a 384-well black clear bottom plate in triplicate. 750 cells are added per well in 50 μL complete growth medium in the 384-well plate. Plates are incubated for 115 to 120 h at 37° C., 5% CO2, and 95% humidity. At the end of the incubation, 40 μL of a […] solution of resazurin (Sigma, St. Louis, MO) in PBS is added to each well of the plate and plates are incubated for an additional 18 to 24 h at 37° C., 5% CO2, and 95% humidity. Plates are read on a Synergy2 or equivalent reader (Biotek, Winooski, VT) using an excitation of 540 nm and an emission of 600 nm. Data is analyzed using Prism software (Graphpad, San Diego, CA) to calculate IC50 values.

MiaPaca-2 cells = test: MiaPaca-2 Cell Proliferation Assay; format: cell-based; conditions: Homo sapiens, MIA PaCa-2
Description: MiaPaca-2 cells (catalog #CRL-1420) are obtained from the American Type Culture Collect (ATTC, Manassas, VA). Briefly, cells were grown in DMEM supplemented with 10% characterized fetal bovine serum (Invitrogen, Carlsbad, CA), 2.5% New Zealand sourced horse serum and 1% Penicillin/Streptomycin/L-Glutamine at 37° C., 5% CO2, and 95% humidity. Cells are expanded until reaching 70-95% confluency at which point they are sub-cultured or harvested for assay use. For assays completed in 96-well plates, a serial dilution of test compound is dispensed into a 96-well black clear bottom plate in triplicate. Three thousand cells are added per well in 200 μL complete growth medium in the 96-well plate. Plates are incubated for 67 to 72 h at 37° C., 5% CO2, and 95% humidity. At the end of the incubation, 40 μL of a […] solution of resazurin (Sigma, St. Louis, MO) in PBS is added to each well of the plate and plates are incubated for an additional 5 to 6 hours at 37° C., 5% CO2, and 95% humidity. For 384-well assays, a threefold, 8-point serial dilution of compound was spotted column wise into a 384 well black, clear bottom, tissue culture treated plate using the Beckman Coulter Echo 650. Likewise, a threefold, 8-point serial dilution of cobimetinib was spotted row wise into the 384 well black, clear bottom plate containing compound. DMSO concentration was constant across all wells at 0.4%. Seven hundred fifty cells are added per well in 50 μL complete growth medium in each 384-well plate. Plates are incubated for 67 to 72 h at 37° C., 5% CO2, and 95% humidity. At the end of the incubation, 10 μL of a 440 μM solution of resazurin (Sigma, St. Louis, MO) in PBS is added to each well of the plate and plates are incubated for an additional 4 to 6 h at 37° C., 5% CO2, and 95% humidity. Plates are read on a Synergy2 or equivalent reader (Biotek, Winooski VT) using an excitation of 540 nm and an emission of 600 nm. Data is analyzed using Prism software (Graphpad, San Diego, CA) to calculate IC50 values.

Pa16c cells = test: Pa16c Cell Proliferation Assay; format: cell-based; conditions: Table 2, inhibition of cell proliferation
Description: Pa16c cells are obtained from Dr. Channing Der, University of North Carolina at Chapel Hill. Briefly, cells are grown in Dulbecco's Modified Eagle Medium supplemented with 10% characterized fetal bovine serum (Invitrogen, Carlsbad, CA) and 1% Penicillin/Streptomycin/L-Glutamine at 37° C., 5% CO2, and 95% humidity. Cells are expanded until reaching 70-95% confluency at which point they are sub-cultured or harvested for assay use. A serial dilution of test compound is dispensed into a 384-well black clear bottom plate in triplicate. 750 cells are added per well in 50 μL complete growth medium in the 384-well plate. Plates are incubated for 67 to 72 hours at 37° C., 5% CO2, and 95% humidity. At the end of the incubation, 40 μL of a […] solution of resazurin (Sigma, St. Louis, MO) in PBS is added to each well of the plate and plates are incubated for an additional 18 to 24 hours at 37° C., 5% CO2, and 95% humidity. Plates are read on a Synergy2 or equivalent reader (Biotek, Winooski, VT) using an excitation of 540 nm and an emission of 600 nm. Data is analyzed using Prism software (Graphpad, San Diego, CA) to calculate IC50 values.

B-Raf kinase = target: T2, B-Raf kinase (Homo sapiens, UniProt P15056); test: Biochemical Assay for B-Raf (coupled pyruvate kinase/lactate dehydrogenase assay)
T2 construct: GST (N); purchased Sigma
T2 sequence (P15056 416-766): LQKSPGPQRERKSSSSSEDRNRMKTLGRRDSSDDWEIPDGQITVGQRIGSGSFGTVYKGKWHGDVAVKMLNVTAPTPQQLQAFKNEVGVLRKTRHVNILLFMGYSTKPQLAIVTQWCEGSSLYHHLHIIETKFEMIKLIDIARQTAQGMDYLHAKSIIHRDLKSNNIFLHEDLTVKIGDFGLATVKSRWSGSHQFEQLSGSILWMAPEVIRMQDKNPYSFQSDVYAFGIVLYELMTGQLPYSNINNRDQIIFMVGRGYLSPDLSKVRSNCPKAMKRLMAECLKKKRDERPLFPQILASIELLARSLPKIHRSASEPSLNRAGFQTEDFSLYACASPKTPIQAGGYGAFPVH

tubulin = test: Cellular Tubulin Polymerization Assay (HCT-116 cells); format: cell-based; conditions: read-out: Tubulin Cellular IC50
HCT-116 cells = test: HCT-116 Cell Proliferation Assay; format: cell-based; conditions: Homo sapiens
Description: HCT-116 cells (catalog #CCL-247) are obtained from the American Type Culture Collect (ATCC, Manassas, VA). Briefly, cells are grown in McCoy's 5A supplemented with 10% characterized fetal bovine serum (Invitrogen, Carlsbad, CA) and 1% Penicillin/Streptomycin/L-Glutamine at 37° C., 5% CO2, and 95% humidity. Cells are expanded until reaching 70-95% confluency at which point they are sub-cultured or harvested for assay use. A serial dilution of test compound is dispensed into a 384-well black clear bottom plate in triplicate. 375 cells are added per well in 50 μL complete growth medium in the 384-well plate. Plates are incubated for 67 to 72 h at 37° C., 5% CO2, and 95% humidity. At the end of the incubation, 40 μL of a […] solution of resazurin (Sigma, St. Louis, MO) in PBS is added to each well of the plate and plates are incubated for an additional 4 to 5 hours at 37° C., 5% CO2, and 95% humidity. Plates are read on a Synergy2 or equivalent reader (Biotek, Winooski, VT) using an excitation of 540 nm and an emission of 600 nm. Data is analyzed using Prism software (Graphpad, San Diego, CA) to calculate IC50 values.

[1] = Table 1, inhibition of biochemical activity, read-out: CRAF
[2] = HPAF-II, Table 3, read-out: HPAF-II IC50
[3] = Table 2, inhibition of cell proliferation, read-out: HPAF-II
[4] = Table 2, inhibition of cell proliferation, read-out: MiaPaca-2
[5] = Table 3, read-out: MiaPaca-2 IC50
[6] = Table 1, inhibition of biochemical activity, read-out: BRAF
[7] = HCT-116, Table 3, read-out: HCT-116 IC50
[8] = Table 2, inhibition of cell proliferation, read-out: HCT-116

T1 sequence (P04049 307-648 Y340D/Y341D): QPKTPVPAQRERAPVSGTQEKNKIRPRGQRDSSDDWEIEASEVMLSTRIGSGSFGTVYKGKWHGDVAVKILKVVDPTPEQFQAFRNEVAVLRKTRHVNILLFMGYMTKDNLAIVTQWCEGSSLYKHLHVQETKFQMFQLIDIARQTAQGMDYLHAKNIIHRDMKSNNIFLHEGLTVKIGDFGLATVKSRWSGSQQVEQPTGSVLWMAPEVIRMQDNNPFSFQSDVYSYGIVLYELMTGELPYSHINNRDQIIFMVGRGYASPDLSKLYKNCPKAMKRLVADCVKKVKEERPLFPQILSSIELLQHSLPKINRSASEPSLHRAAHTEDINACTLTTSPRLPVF

Row | SMILES | pIC50 (C-Raf kinase; [1]) | pIC50 (C-Raf kinase; Table 3, read-out: CRAF IC50) | pIC50 (HPAF-II cells; [2]) | pIC50 (HPAF-II cells; [3]) | pIC50 (MiaPaca-2 cells; [4]) | pIC50 (MiaPaca-2 cells; [5]) | pIC50 (Pa16c cells) | pIC50 (B-Raf kinase; [6]) | pIC50 (B-Raf kinase; Table 3, read-out: BRAF IC50) | pIC50 (tubulin; Table 3, HCT-116 cells) | pIC50 (HCT-116 cells; [7]) | pIC50 (HCT-116 cells; [8]) | pIC50 (C-Raf kinase; Table 4, read-out: CRAF IC50) | pIC50 (HPAF-II cells; HPAF-II, Table 4, read-out: HPAF-II IC50) | pIC50 (MiaPaca-2 cells; Table 4, read-out: MiaPaca-2 IC50) | pIC50 (B-Raf kinase; Table 4, read-out: BRAF IC50) | pIC50 (tubulin; Table 4, HCT-116 cells) | pIC50 (HCT-116 cells; HCT-116, Table 4, read-out: HCT-116 IC50)
1 | CC(=O)Nc1cc(-c2cc(-c3cc(NC(=O)Nc4ccc(C(F)(F)F)nc4)ccc3C)ccn2)ccn1 [Example 4] | > 7.00 | > 7.00 | 6.30 to 7.00 | 6.30 to 7.00 | > 7.00 | > 7.00 | > 7.00 | > 7.00 | > 7.00 | > 7.00 | > 7.00 | > 7.00 |  |  |  |  |  | 
2 | CC(=O)Nc1cc(-c2cc(-c3cc(NC(=O)Nc4ccc(C(F)(F)F)nc4)ccc3C)cn(C)c2=O)ccn1 [Example 9] | > 7.00 | > 7.00 | 6.00 to 6.30 | 6.00 to 6.30 | > 7.00 | > 7.00 | 6.30 to 7.00 | > 7.00 | > 7.00 | > 7.00 | > 7.00 | > 7.00 |  |  |  |  |  | 
3 | CNc1cc(-c2cc(-c3cc(NC(=O)Nc4ccc(C(F)(F)F)nc4)ccc3C)cc(OCCO)n2)ccn1 [Example 17] | > 7.00 | 6.30 to 7.00 | 6.00 to 6.30 | 6.00 to 6.30 | > 7.00 | > 7.00 | > 7.00 | 6.30 to 7.00 | 6.30 to 7.00 |  | > 7.00 | > 7.00 |  |  |  |  |  | 
4 | Cc1ccc(NC(=O)Nc2cc(C(F)(F)F)cnn2)cc1-c1ccnc(-c2ccnc(NC(=O)C3CC3)c2)c1 [Example 22, N-(4-(2-methyl-5-(3-(5-(trifluoromethyl)pyridazin-3-yl)ureido)phenyl)-[2,4′-bipyridin]-2′-yl)cyclopropanecarboxamide] | > 7.00 |  |  | 5.00 to 6.00 | 6.00 to 6.30 |  | 5.00 to 6.00 | > 7.00 |  |  |  | 6.00 to 6.30 |  |  |  |  |  | 
5 | Cc1ccc(NC(=O)Nc2ccc(C(F)(F)F)nc2)cc1-c1cc(N2CCOCC2)nc(N2CCC(O)CC2)n1 [Example 34] | > 7.00 | 6.30 to 7.00 | 6.30 to 7.00 | 6.30 to 7.00 | > 7.00 | > 7.00 | 6.00 to 6.30 | 6.30 to 7.00 | 6.30 to 7.00 | > 7.00 | > 7.00 | > 7.00 |  |  |  |  |  | 
6 | Cc1ccc(NC(=O)Nc2ccc(C(F)(F)F)nc2)cc1-c1cc(OC[C@H](C)O)nc(N2CCOCC2)c1 [Example 39] | > 7.00 | > 7.00 | > 7.00 | > 7.00 | > 7.00 | > 7.00 | 6.30 to 7.00 | 6.30 to 7.00 | 6.30 to 7.00 | > 7.00 | > 7.00 | > 7.00 |  |  |  |  |  | 
7 | Cc1ccc(NC(=O)Nc2ccc(C(F)(F)F)nc2)cc1-c1cc(OC[C@@H](C)O)nc(N2CCOCC2)c1 [Example 40] | > 7.00 | > 7.00 | > 7.00 | > 7.00 | > 7.00 | > 7.00 | 6.30 to 7.00 | > 7.00 | 6.30 to 7.00 | > 7.00 | > 7.00 | > 7.00 |  |  |  |  |  | 
8 | Cc1cc(F)c(NC(=O)NCCC(C)(C)C)cc1-c1cc(OCCO)nc(N2CCOCC2)c1 [reference compound] |  |  |  |  |  |  |  |  |  |  |  |  | > 7.00 | 5.00 to 6.00 | 5.00 to 6.00 | > 7.00 | 5.00 to 6.00 | 5.00 to 6.00
